Experimental findings from patent US20240174674A1, “NITROGEN-CONTAINING POLYCYCLIC FUSED RING COMPOUND, PHARMACEUTICAL COMPOSITION THEREOF, PREPARATION METHOD THEREFOR, AND USE THEREOF” (APPLIED PHARMACEUTICAL SCIENCE, INC., priority 2021, published 2024) are described below.

In this assay the target is RET G810R (Homo sapiens (Human), UniProt P07949, G810R). The assay can be described thus: HTRF KinEASE-TK kinase activity test, RET G810R. The note with it: for IC50: read-out: RET G810R IC50, HTRF kinase assay.

SMILES strings stand for the structures. Where only a bound is given, the exact number is not on record here.

RET G810R, sequence (P07949 29-1114 G810R): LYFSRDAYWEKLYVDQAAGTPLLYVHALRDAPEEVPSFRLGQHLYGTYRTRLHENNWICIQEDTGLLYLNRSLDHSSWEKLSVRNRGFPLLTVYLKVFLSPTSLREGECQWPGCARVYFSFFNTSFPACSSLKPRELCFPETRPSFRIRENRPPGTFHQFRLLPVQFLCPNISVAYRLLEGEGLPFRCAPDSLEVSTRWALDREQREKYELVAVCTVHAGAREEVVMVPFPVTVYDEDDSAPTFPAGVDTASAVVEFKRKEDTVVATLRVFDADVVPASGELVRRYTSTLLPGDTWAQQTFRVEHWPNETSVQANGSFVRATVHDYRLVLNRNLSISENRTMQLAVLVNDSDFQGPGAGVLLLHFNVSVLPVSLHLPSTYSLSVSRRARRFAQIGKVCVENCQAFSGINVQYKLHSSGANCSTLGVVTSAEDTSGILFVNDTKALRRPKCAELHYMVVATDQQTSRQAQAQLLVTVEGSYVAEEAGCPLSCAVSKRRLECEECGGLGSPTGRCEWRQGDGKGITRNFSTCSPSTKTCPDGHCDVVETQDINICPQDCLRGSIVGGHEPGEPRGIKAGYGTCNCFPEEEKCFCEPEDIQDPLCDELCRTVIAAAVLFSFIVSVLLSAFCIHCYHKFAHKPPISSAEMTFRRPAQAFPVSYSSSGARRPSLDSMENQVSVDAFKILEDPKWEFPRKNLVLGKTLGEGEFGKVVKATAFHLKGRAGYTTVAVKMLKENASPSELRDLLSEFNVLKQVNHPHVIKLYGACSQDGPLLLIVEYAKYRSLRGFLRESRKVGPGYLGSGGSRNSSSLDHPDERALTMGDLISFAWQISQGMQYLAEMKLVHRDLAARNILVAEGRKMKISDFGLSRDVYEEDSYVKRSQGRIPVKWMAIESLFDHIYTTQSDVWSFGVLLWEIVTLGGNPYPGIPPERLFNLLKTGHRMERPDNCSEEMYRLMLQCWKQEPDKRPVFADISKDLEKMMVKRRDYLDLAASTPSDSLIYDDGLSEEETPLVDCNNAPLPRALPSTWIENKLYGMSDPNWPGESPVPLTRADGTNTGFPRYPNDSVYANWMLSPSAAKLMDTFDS

As for `CCOc1cc(-c2ccc(N3CC4CCC(C3)N4C(=O)c3c(F)cccc3Cl)nc2)c2c3cn[nH]c3nn2c1` [Compound 155, (2-chloro-6-fluoro)((1R,5S)-3-(5-(6-ethoxy-1H-pyrazolo[3′,4′:3,4]pyrazolo[1,5-α]pyridin-4-yl)pyridin-2-yl)-3,8-diazabicyclo[3.2.1]octan-8-yl)benzamide], the IC50 was found to be 14.2 nM.

For the compound `CCOc1cc(-c2ccc(N3CC4CCC(C3)N4Cc3ccc(OC)nc3)nc2)c2c3cn[nH]c3nn2c1` [Compound 156, 6-ethoxy-4-(6-((1R,5S)-8-((6-methoxypyridin-3-yl)methyl)-3,8-diazabicyclo[3.2.1]octan-3-yl)pyridin-3-yl)-1H-pyrazolo[3′,4′:3,4]pyrazolo[1,5-α]pyrazole], the IC50 worked out at 11.4 nM.

With `CCOc1cc(-c2ccc(N3C4CCC3CN(C(=O)c3c(F)cccc3Cl)C4)nc2)c2c3cn[nH]c3nn2c1` [Compound 157, (2-chloro-6-fluoro)((1R,5S)-8-(5-(6-ethoxy-1H-pyrazolo[3′,4′:3,4]pyrazolo[1,5-α]pyridin-4-yl)pyridin-2-yl)-3,8-diazabicyclo[3.2.1]octan-3-yl)benzamide], the IC50 was 8.6 nM.

As for `CCOc1cc(-c2ccc(N3C4CCC3CN(Cc3ccc(OC)nc3)C4)nc2)c2c3cn[nH]c3nn2c1` [Compound 158, 6-ethoxy-4-(6-((1R,5S)-3-((6-methoxypyridin-3-yl)methyl)-3,8-diazabicyclo[3.2.1]octan-3-yl)pyridin-8-yl)-1H-pyrazolo[3′,4′:3,4]pyrazolo[1,5-α]pyrazole], the concentration for half-maximal inhibition (IC50) worked out at 18.7 nM.

For the compound `CCOc1cc(-c2ccc(N3CC4CCC3CN4C(=O)c3c(F)cccc3Cl)nc2)c2c3cn[nH]c3nn2c1` (stereo not shown) [Compound 159], the IC50 stood at 16.1 nM.

For `CCOc1cc(-c2ccc(N3CC4CCC3CN4Cc3ccc(OC)nc3)nc2)c2c3cn[nH]c3nn2c1` (stereo not drawn) [Compound 160, 6-ethoxy-4-(6-(5-((6-methoxypyridin-3-yl)methyl)-2,5-diazabicyclo[2.2.2]octan-2-yl)pyridin-3-y 1)-1H-pyrazolo[3′,4′:3,4]pyrazolo[1,5-α]pyridine], the IC50 was 8.2 nM.

Consider `CCOc1cc(-c2ccc(N3CCN(Cc4ccc(OC)nc4)C4(CC4)C3)nc2)c2c3cn[nH]c3nn2c1` [Compound 165, 6-ethoxy-4-(6-(4-((6-methoxypyridin-3-yl)methylene)-4,7-diazaspiro[2.5]octan-7-yl)pyridin-3-yl) -1H-pyrazolo[3′,4′:3,4]pyrazolo[1,5-α]pyridine], for which the 50% inhibitory concentration (IC50) was determined as 38.3 nM.

As for `CCOc1cc(-c2ccc(N3CC4COCC(C3)N4C(=O)c3c(F)cccc3Cl)nc2)c2c3cn[nH]c3nn2c1` [Compound 169, N-(7-(5-(6-ethoxy-1H-pyrazolo[3′,4′:3,4]pyrazolo[1,5-α]pyridin-4-yl)pyridin-2-yl)-3-oxa-7,9-azabicyclo[3.3.1]nonan-9-yl)-2-chloro-6-fluorobenzamide], the half-maximal inhibitory concentration (IC50) turned out to be 4.8 nM.

For the compound `CCOc1cc(-c2ccc(N3C[C@@H]4[C@H](C3)[C@H]4NC(=O)c3c(F)cccc3Cl)nc2)c2c3cn[nH]c3nn2c1` [Compound 170, 2-chloro-N-((1R,5S,6S)-3-(5-(6-ethoxy-1H-pyrazolo[3′,4′:3,4]pyrazolo[1,5-α]pyridin-4-yl)pyridin-2-yl)-3-azabicyclo[3.1.0]hexan-6-yl)-6-fluorobenzamide], the IC50 was found to be 27.3 nM.

With `CCOc1cc(-c2ccc(N3C[C@@H]4[C@H](C3)[C@@H]4NC(=O)c3c(F)cccc3Cl)nc2)c2c3cn[nH]c3nn2c1` [Compound 172, 2-chloro-N-((1R,5S,6R)-3-(5-(6-ethoxy-1H-pyrazolo[3′,4′:3,4]pyrazolo[1,5-α]pyridin-4-yl)pyridin-2-yl)-3-azabicyclo[3.1.0]hexan-6-yl)-6-fluorobenzamide], the IC50 came out at 8.2 nM.

Turning to `CCOc1cc(-c2ccc(N3C[C@@H]4[C@H](C3)[C@@H]4NCc3ccc(OC)nc3)nc2)c2c3cn[nH]c3nn2c1` [Compound 173], the IC50 came out at 12.5 nM.

`CCOc1cc(-c2ccc(N3C[C@H]4C[C@H](NC(=O)c5c(F)cccc5Cl)C[C@H]4C3)nc2)c2c3cn[nH]c3nn2c1` [Compound 174]: the IC50 was 3.5 nM. Also, the “inhibitory activity against RET G810R relative to that of selpercatinib (LOXO-292)” value (fold versus selpercatinib (LOXO-292)) is on record as at least 10 times.

For `CCOc1cc(-c2ccc(N3C[C@@H]4C5CCC([C@@H]4C3)N5C(=O)c3c(F)cccc3Cl)nc2)c2c3cn[nH]c3nn2c1` [Compound 180, (2-chloro-6-fluorophenyl)((3aR,7aS)-2-(5-(6-ethoxy-1H-pyrazolo[3′,4′:3,4]pyrazolo[1,5-α]pyridin-4-yl)pyridin-2-yl)octahydro-1H-4,7-epiminoisoindol-8-yl)methanone], the IC50 turned out to be 9.7 nM.

`CCOc1cc(-c2ccc(N3C[C@@H]4[C@@H](CNC(=O)c5c(F)cccc5Cl)[C@@H]4C3)nc2)c2c3cn[nH]c3nn2c1` [Compound 183, 2-chloro-N-(((1R,5S,6s)-3-(5-(6-ethoxy-1H-pyrazolo[3′,4′:3,4]pyrazolo[1,5-α]pyridin-4-yl)pyridin-2-yl)-3-azabicyclo[3.1.0]hexan-6-yl)methyl)-6-fluorobenzamide]: the IC50 worked out at 8 nM.

For `CCOc1cc(-c2ccc(N3CC4(CCCN4Cc4ccc(OC)nc4)C3)nc2)c2c3cn[nH]c3nn2c1` [Compound 188, 6-ethoxy-4-(6-(5-((6-methoxypyridin-3-yl)methyl)-2,5-diazaspiro[3.4]octan-2-yl)pyridin-3-yl)-1 H-pyrazolo[3′,4′:3,4]pyrazolo[1,5-α]pyridine], the IC50 was found to be 16.9 nM.

Regarding `CCOc1cc(-c2ccc(N3CC4(CCN(C(=O)c5c(F)cccc5Cl)C4)C3)nc2)c2c3cn[nH]c3nn2c1` [Compound 189], the IC50 worked out at 15.3 nM.

`CCOc1cc(-c2ccc(N3CC4(CCCN(C(=O)c5c(F)cccc5Cl)C4)C3)nc2)c2c3cn[nH]c3nn2c1` [Compound 193, N-(2-(5-(6-ethoxy-1H-pyrazolo[3′,4′:3,4]pyrazolo[1,5-α]pyridin-4-yl)pyridin-2-yl)-2,6-diazaspiro [3.5]nonan-6-yl)-2-chloro-6-fluorobenzamide]: the IC50 stood at 33.7 nM.

`CCOc1cc(-c2ccc(N3CCC4(CC3)CCN4C(=O)c3c(F)cccc3Cl)nc2)c2c3cn[nH]c3nn2c1` [Compound 201, N-(7-(5-(6-ethoxy-1H-pyrazolo[3′,4′:3,4]pyrazolo[1,5-α]pyridin-4-yl)pyridin-2-yl)-1,7-diazaspiro [3.5]nonan-1-yl)-2-chloro-6-fluorobenzamide]: the IC50 stood at 4.1 nM.

For `CCOc1cc(-c2ccc(N3CCC4(CCCN4Cc4ccc(OC)nc4)CC3)nc2)c2c3cn[nH]c3nn2c1` [Compound 207, 6-ethoxy-4-(6-(1-((6-methoxypyridin-3-yl)methylene)-1,8-diazaspiro[4.5]octan-8-yl)pyridin-3-yl) -1H-pyrazolo[3′,4′:3,4]pyrazolo[1,5-α]pyridine], the IC50 turned out to be 49 nM.

For the compound `CCOc1cc(-c2ccc(N3CCC4(CCN(C(=O)c5c(F)cccc5Cl)C4)CC3)nc2)c2c3cn[nH]c3nn2c1` [Compound 208, N-(8-(5-(6-ethoxy-1H-pyrazolo[3′,4′:3,4]pyrazolo[1,5-α]pyridin-4-yl)pyridin-2-yl)-2,8-diazaspiro [4.5]decan-2-yl)-2-chloro-6-fluorobenzamide], the IC50 came to 24.1 nM.

As for `CCOc1cc(-c2ccc(N3CCC4(CCCN(C(=O)c5c(F)cccc5Cl)C4)CC3)nc2)c2c3cn[nH]c3nn2c1` [Compound 214], the IC50 was found to be 47.3 nM.
